Data reported in patent publication EP4592286A1, “MACROCYCLIC NITROGEN-CONTAINING CROWN ETHER COMPOUND AND USE THEREOF AS PROTEIN KINASE INHIBITOR” (Artivila Biopharma, priority 2022, dated 2024).

Experiments:
JAK1 [1] = molecular target: T1, JAK1 (Homo sapiens, UniProt P23458); assay: experiment of inhibiting kinase activity (Caliper mobility shift assay), JAK1; format: biochemical; conditions: for inhibition at 0.01 µM: at 10 nM; for inhibition at 0.01 µM / inhibition at 0.1 µM: read-out: inhibition rate JAK1; for inhibition at 0.1 µM: at 100 nM; for IC50: kinase activity assay, Table 3
Outline: (§1)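 Kinase preincubated 10 min at room temperature with compound, then reaction started with ATP plus substrate; substrate conversion read by Caliper mobility shift after stop solution. Compounds tested at 10 and 100 nM or as 10-point 3-fold dilutions from 10 µM; IC50 from variable-slope fit of % inhibition.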

JAK2 = JAK2 (Homo sapiens, UniProt O60674); assay: experiment of inhibiting kinase activity (Caliper mobility shift assay), JAK2; format: biochemical; conditions: for inhibition at 0.01 µM: at 10 nM; for inhibition at 0.01 µM / inhibition at 0.1 µM: read-out: inhibition rate JAK2; for inhibition at 0.1 µM: at 100 nM; for IC50: kinase activity assay, Table 3
Outline: as §1

LRRK2 = LRRK2 (Homo sapiens, UniProt Q5S007); assay: experiment of inhibiting kinase activity, LRRK2; format: biochemical; conditions: for inhibition at 0.01 µM: at 10 nM; for inhibition at 0.01 µM / inhibition at 0.1 µM: read-out: inhibition rate LRRK2; for inhibition at 0.1 µM: at 100 nM; for IC50: kinase activity assay, Table 3
Experimental: The inhibition rates of tested compounds on JAK1, JAK2, JAK3, TYK2, CDK7, CDK9, EGFR (T790M) and LRRK2 kinases were measured. The test concentrations of the compounds were 10 nM and 100 nM, and the detection was performed by replicate wells. Alternatively, compounds were 3-fold serial diluted from 10 µM for 10 concentrations in replicate wells.

JAK1 [2] = molecular target: T1, JAK1; assay: JAKs cell activity test: detection of pSTAT6 in THP1 cells induced by JAK1_IL-4; format: cell-based; conditions: pSTAT6, IL-4-induced THP1 cells
Experimental: Detection of pSTAT6 in THP1 cells induced by JAK1_IL-4
THP1 cells were collected by centrifugation, resuspended with 1×HBSS, counted and diluted to a certain cell density. They were inoculated in a 384-well plate and cultured in a saturated humidity incubator with 37 °C and 5% CO2. The compound (DMSO final volume of 0.3%) was added to THP1 cells (10 doses in duplicates) and cultured in a saturated humidity incubator with 37 °C and 5% CO2. hIL-4 was added to stimulate cells and cultured in a saturated humidity incubator with 37 °C and 5% CO2. The lysis solution was added and incubated at room temperature. According to the instructions of AlphaLISA SureFire Ultra p-STAT6 detection kit, the lysis solution was transferred to pSTAT6 detection system, and the ALPHA signal was read by PE Envision microplate reader. The inhibition rate Inh%=((DMSO-sample)/(DMSO-background))×100 was calculated. IC50 was obtained by fitting with GraphPad Prism non-linear regression equation, and y=Bottom+(Top-Bottom)/(1+10^((LogIC50-x)×hillslope)), where x was the concentration of the compound and y was the inhibition rate.

JAK3 = molecular target: T2, JAK3 (Homo sapiens, UniProt P52333); assay: experiment of inhibiting kinase activity (Caliper mobility shift assay), JAK3; format: biochemical; conditions: for inhibition at 0.01 µM: at 10 nM; for inhibition at 0.01 µM / inhibition at 0.1 µM: read-out: inhibition rate JAK3; for inhibition at 0.1 µM: at 100 nM
T2 sequence (P52333 1-1124): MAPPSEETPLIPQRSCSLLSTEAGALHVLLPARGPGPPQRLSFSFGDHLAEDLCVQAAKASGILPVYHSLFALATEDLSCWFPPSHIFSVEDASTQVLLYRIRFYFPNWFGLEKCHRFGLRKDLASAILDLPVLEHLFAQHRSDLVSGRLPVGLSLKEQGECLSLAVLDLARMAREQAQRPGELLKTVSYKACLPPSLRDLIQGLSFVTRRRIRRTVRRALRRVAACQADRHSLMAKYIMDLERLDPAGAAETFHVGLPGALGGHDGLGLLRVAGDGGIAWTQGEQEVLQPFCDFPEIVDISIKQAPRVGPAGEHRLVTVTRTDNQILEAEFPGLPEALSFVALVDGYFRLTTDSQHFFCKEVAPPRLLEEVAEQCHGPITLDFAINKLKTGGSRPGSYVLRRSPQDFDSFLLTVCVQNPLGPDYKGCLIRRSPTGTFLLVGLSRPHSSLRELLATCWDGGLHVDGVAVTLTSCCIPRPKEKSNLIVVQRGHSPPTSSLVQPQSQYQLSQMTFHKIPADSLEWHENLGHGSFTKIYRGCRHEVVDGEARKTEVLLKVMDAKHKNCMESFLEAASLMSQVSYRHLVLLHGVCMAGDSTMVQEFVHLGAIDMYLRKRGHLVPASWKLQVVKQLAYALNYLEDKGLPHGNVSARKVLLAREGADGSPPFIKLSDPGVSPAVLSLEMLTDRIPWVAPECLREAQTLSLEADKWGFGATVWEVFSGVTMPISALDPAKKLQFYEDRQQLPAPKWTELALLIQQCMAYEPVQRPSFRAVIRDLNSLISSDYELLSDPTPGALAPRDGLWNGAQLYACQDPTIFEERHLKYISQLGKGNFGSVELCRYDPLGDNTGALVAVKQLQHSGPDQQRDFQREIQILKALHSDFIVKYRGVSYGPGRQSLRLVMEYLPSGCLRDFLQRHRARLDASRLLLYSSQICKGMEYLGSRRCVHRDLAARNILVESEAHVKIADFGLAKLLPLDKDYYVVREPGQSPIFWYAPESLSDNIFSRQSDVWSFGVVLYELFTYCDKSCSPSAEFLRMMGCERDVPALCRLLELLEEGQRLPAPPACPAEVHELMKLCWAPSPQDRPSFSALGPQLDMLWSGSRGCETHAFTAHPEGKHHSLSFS
Outline: as §1

CDK7 = CDK7 (Homo sapiens, UniProt P50613); assay: experiment of inhibiting kinase activity (Caliper mobility shift assay), CDK7; format: biochemical; conditions: read-out: inhibition rate CDK7; for inhibition at 0.1 µM: at 100 nM
Outline: as §1

T1 sequence (P23458 whole entry): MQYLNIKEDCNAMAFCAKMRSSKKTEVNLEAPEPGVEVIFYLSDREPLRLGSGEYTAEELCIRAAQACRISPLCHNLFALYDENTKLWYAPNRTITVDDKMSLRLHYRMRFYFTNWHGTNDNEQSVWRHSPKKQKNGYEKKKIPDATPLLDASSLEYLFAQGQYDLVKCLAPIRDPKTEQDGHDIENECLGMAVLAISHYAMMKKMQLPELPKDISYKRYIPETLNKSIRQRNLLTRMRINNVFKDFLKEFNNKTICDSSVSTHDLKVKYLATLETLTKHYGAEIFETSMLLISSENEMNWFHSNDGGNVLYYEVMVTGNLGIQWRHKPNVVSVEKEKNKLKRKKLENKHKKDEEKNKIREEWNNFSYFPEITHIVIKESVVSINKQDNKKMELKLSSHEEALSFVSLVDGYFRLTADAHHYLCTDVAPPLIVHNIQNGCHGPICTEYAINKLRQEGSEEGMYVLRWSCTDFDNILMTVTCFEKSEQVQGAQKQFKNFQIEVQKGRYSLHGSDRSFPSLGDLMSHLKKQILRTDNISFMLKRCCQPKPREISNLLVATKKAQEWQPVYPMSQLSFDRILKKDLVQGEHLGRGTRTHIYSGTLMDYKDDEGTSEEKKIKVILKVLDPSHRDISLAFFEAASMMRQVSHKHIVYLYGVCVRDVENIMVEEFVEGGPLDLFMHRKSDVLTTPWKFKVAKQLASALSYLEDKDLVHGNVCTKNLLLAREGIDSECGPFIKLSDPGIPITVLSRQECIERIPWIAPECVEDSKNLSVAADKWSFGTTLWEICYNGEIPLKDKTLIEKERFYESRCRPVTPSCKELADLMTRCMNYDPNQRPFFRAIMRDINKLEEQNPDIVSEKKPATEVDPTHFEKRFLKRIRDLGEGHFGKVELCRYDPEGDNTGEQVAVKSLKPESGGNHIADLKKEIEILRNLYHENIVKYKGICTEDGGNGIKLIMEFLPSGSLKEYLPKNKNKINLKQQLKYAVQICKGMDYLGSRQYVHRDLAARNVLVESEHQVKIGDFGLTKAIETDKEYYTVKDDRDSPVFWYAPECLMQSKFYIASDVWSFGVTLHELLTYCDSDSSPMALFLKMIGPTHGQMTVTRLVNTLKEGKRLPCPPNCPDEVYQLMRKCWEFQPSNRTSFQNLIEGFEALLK
JAK2, sequence (O60674 whole entry): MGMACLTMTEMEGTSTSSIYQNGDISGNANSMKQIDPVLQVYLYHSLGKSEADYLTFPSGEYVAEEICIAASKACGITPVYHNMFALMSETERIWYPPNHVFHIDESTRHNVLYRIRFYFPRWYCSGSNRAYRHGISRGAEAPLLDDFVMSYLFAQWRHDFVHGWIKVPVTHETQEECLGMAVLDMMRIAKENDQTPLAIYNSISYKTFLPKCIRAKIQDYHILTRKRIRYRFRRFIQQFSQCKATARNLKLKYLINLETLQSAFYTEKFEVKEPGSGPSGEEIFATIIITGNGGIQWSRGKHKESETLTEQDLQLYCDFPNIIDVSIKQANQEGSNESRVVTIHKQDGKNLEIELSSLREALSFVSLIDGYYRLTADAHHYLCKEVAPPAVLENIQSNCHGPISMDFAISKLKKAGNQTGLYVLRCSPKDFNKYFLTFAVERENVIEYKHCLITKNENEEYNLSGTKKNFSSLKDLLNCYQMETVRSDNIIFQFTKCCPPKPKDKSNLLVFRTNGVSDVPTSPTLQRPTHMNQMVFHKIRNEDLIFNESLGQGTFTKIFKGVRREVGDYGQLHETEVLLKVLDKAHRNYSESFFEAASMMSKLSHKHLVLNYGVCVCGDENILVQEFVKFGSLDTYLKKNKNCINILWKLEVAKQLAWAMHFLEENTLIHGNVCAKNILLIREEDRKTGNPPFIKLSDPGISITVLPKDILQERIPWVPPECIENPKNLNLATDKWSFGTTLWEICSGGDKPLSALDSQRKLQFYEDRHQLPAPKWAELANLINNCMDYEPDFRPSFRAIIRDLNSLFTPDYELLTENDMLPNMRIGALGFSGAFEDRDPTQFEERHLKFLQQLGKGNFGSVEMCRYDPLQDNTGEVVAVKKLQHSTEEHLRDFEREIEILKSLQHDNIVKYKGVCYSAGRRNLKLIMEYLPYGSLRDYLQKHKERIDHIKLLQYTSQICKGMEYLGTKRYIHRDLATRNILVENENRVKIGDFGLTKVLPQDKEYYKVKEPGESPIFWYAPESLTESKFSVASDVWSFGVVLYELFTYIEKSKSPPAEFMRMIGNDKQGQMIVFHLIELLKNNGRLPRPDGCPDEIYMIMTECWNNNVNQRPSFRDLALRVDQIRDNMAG
CDK7, sequence (P50613 whole entry, species assumed): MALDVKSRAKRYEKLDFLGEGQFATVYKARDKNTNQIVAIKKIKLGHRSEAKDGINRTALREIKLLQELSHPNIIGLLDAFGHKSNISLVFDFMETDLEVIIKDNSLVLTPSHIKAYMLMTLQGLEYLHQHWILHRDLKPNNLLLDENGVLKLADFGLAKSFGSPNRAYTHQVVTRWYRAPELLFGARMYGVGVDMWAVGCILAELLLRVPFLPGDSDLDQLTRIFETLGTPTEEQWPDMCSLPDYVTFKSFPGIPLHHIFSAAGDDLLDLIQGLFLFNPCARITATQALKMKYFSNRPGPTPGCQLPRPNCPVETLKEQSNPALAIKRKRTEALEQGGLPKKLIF
CDK7, sequence (P51946 whole entry partner, species assumed): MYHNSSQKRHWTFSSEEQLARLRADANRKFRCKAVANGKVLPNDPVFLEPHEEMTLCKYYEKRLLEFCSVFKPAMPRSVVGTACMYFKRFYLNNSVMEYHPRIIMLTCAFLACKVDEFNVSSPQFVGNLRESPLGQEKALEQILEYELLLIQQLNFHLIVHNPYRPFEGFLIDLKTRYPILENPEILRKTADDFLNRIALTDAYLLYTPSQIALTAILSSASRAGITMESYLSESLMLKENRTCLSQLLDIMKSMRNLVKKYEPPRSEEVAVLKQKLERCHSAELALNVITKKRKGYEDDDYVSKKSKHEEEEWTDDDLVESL
CDK7, sequence (P51948 whole entry partner, species assumed): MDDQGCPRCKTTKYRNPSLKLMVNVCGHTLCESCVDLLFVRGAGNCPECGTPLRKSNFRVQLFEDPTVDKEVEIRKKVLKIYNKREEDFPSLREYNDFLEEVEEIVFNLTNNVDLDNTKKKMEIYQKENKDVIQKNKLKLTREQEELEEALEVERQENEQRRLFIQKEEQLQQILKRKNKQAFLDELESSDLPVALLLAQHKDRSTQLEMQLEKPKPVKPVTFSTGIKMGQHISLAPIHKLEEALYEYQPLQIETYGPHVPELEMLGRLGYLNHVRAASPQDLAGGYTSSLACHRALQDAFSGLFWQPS

| inhibition at 0.01 µM (JAK1 [1]) | inhibition at 0.1 µM (JAK1 [1]) | IC50 (JAK1 [1]) | inhibition at 0.01 µM (JAK2) | inhibition at 0.1 µM (JAK2) | IC50 (JAK2) | inhibition at 0.01 µM (LRRK2) | inhibition at 0.1 µM (LRRK2) | IC50 (LRRK2) | EC50 (JAK1 [2]) | inhibition at 0.01 µM (JAK3) | inhibition at 0.1 µM (JAK3) | inhibition at 0.1 µM (CDK7) | IC50 (JAK3; kinase activity assay, Table 3) | inhibition at 0.01 µM (CDK7; at 10 nM) | Structure (SMILES) |
| --- | --- | --- | --- | --- | --- | --- | --- | --- | --- | --- | --- | --- | --- | --- | --- |
| > 80% | > 80% | < 50 nM | > 80% | > 80% | < 50 nM | 40 to 79% | > 80% | < 50 nM | < 50 nM |  |  |  |  |  | CCS(=O)(=O)N1CC(CC#N)(n2cc(-c3nc(Nc4ccc5c(c4)OCCN(C)CCO5)nc4[nH]ccc34)cn2)C1 [Example 28, 2-(1-(ethylsulfonyl)-3-(4-(2-((4-methyl-3,4,5,6-tetrahydro-2H-benzo[b][1,4,7]dioxazolin-9-yl)amino)-7H-pyrrolo[2,3-d]pytimidin-4-yl)-1H-pyrazol-1-yl)azetidin-3-yl) acetonitrile] |
| > 80% | > 80% |  | > 80% | > 80% |  | > 80% | > 80% |  | < 50 nM | > 80% | > 80% | 40 to 79% |  |  | CN1CCOCCOc2cc(Nc3nc(-c4cnn(C(CC#N)C5CCCC5)c4)c4cc[nH]c4n3)ccc2OCC1 (stereo not drawn) [Example 26, 3-cyclopentyl-3-(4-(2-((7-methyl-2,3,6,7,8,9-hexahydro-5H-benzo[b][1,4,7]trioxa[10]azacyclododecan-13-yl)amino)-7H-pyrrolo[2,3-d]pytimidin-4-yl)-1H-pyrazol-1-yl)propionitrile] |
|  | 40 to 79% | 50 to 200 nM | 40 to 79% | > 80% | < 50 nM |  | 40 to 79% | 50 to 200 nM | 50 to 500 nM | 40 to 79% | > 80% | > 80% | < 50 nM | 25 to 39% | CN1CCOCCOc2cc(Nc3ncc(F)c(-c4ccc(C(=O)NCC#N)cc4)n3)ccc2OCC1 [Example 16, N-(cyanomethyl)-4-(5-fluoro-2-((7-methyl-2,3,6,7,8,9-hexahydro-5H-benzo[b][1,4,7]trioxa[10]azacyclododecan-13-yl)amino)pyrimidin-4-yl)benzamide] |
